Results published in ChEMBL document CHEMBL1201862, “PubChem BioAssay data set” (2004).
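Growth conditions: 96-well plates. Treatment: test compound, 48 hours, 5 concentrations. Analysis: linear interpolation between bracketing concentrations; unreached endpoints set to highest concentration. GI50 is the concentration that inhibits growth by half.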 Activity calls are given as the source filed them. Rule as the data show it: active = GI50 up to about 1.1 µM and inactive = higher.

What was measured:
Assay in all cases: NCI tumour cell line growth inhibition, 48 h
MDA-MB-231 = tested on: MDA-MB-231
UACC-257 = tested on: UACC-257
MCF7 = tested on: MCF7
SK-MEL-28 = tested on: SK-MEL-28
SR = tested on: SR
SF-539 = tested on: SF-539
HT-29 = tested on: HT-29
SF-268 = tested on: SF-268
OVCAR-3 = tested on: OVCAR-3
K562 = tested on: K562
Malme-3M = tested on: Malme-3M
MOLT-4 = tested on: MOLT-4
U-251 = tested on: U-251
COLO 205 = tested on: COLO 205
SW-620 = tested on: SW-620
HCT-15 = tested on: HCT-15
SK-MEL-2 = tested on: SK-MEL-2
OVCAR-8 = tested on: OVCAR-8
Hs-578T = tested on: Hs-578T
T47D = tested on: T47D
A498 = tested on: A498
NCI-H23 = tested on: NCI-H23
HCC 2998 = tested on: HCC 2998
ACHN = tested on: ACHN
RPMI-8226 = tested on: RPMI-8226
OVCAR-4 = tested on: OVCAR-4
UO-31 = tested on: UO-31
A549 = tested on: A549
HCT-116 = tested on: HCT-116
LOX IMVI = tested on: LOX IMVI
CCRF-CEM = tested on: CCRF-CEM
786-0 = tested on: 786-0
SNB-19 = tested on: SNB-19
DU-145 = tested on: DU-145
SK-MEL-5 = tested on: SK-MEL-5
SN12C = tested on: SN12C
EKVX = tested on: EKVX
TK-10 = tested on: TK-10
SF-295 = tested on: SF-295
IGROV-1 = tested on: IGROV-1
HOP-92 = tested on: HOP-92
M14 = tested on: M14
SK-OV-3 = tested on: SK-OV-3
KM12 = tested on: KM12
NCI-H522 = tested on: NCI-H522
CAKI-1 = tested on: CAKI-1
MDA-MB-435 = tested on: MDA-MB-435
NCI-H460 = tested on: NCI-H460
NCI/ADR-RES = tested on: NCI/ADR-RES
HL-60 = tested on: HL-60
UACC-62 = tested on: UACC-62
PC-3 = tested on: PC-3
SNB-75 = tested on: SNB-75
OVCAR-5 = tested on: OVCAR-5
HOP-62 = tested on: HOP-62
RXF 393 = tested on: RXF 393

## CC1(C)C[C@H]2C3=CC[C@@H]4[C@@]5(C)CC[C@H](O)C(C)(C)[C@@H]5CC[C@@]4(C)[C@]3(C)C[C@@H](O)[C@@]23C[C@@H]1OC3=O
MDA-MB-231
  GI50: > 100 µM (inactive)
UACC-257
  GI50: > 100 µM (inactive)
MCF7
  GI50: 59.2 µM (inactive)
SK-MEL-28
  GI50: > 100 µM (inactive)
SR
  GI50: > 100 µM (inactive)
SF-539
  GI50: > 100 µM (inactive)
HT-29
  GI50: 50.2 µM (inactive)
SF-268
  GI50: > 100 µM (inactive)
OVCAR-3
  GI50: > 100 µM (inactive)
K562
  GI50: 97.1 µM (inactive)
Malme-3M
  GI50: > 100 µM (inactive)
MOLT-4
  GI50: 49.2 µM (inactive)
U-251
  GI50: > 100 µM (inactive)
COLO 205
  GI50: 44.8 µM (inactive)
SW-620
  GI50: > 100 µM (inactive)
HCT-15
  GI50: > 100 µM
SK-MEL-2
  GI50: > 100 µM (inactive)
OVCAR-8
  GI50: > 100 µM (inactive)
Hs-578T
  GI50: > 100 µM (inactive)
T47D
  GI50: 56.6 µM (inactive)
A498
  GI50: > 100 µM (inactive)
NCI-H23
  GI50: > 100 µM (inactive)
HCC 2998
  GI50: 96.8 µM (inactive)
ACHN
  GI50: > 100 µM (inactive)
RPMI-8226
  GI50: 65.5 µM (inactive)
OVCAR-4
  GI50: 37.2 µM (inactive)
UO-31
  GI50: > 100 µM (inactive)
A549
  GI50: 72.9 µM (inactive)
HCT-116
  GI50: 74 µM (inactive)
LOX IMVI
  GI50: > 100 µM (inactive)
CCRF-CEM
  GI50: > 100 µM (inactive)
786-0
  GI50: > 100 µM (inactive)
SNB-19
  GI50: > 100 µM (inactive)
DU-145
  GI50: > 100 µM (inactive)
SK-MEL-5
  GI50: 55.2 µM (inactive)
SN12C
  GI50: > 100 µM (inactive)
EKVX
  GI50: > 100 µM (inactive)
TK-10
  GI50: > 100 µM (inactive)
SF-295
  GI50: 74.6 µM (inactive)
IGROV-1
  GI50: > 100 µM (inactive)
HOP-92
  GI50: > 100 µM (inactive)
M14
  GI50: > 100 µM (inactive)
SK-OV-3
  GI50: > 100 µM (inactive)
KM12
  GI50: 70.3 µM (inactive)
NCI-H522
  GI50: 56.5 µM (inactive)
CAKI-1
  GI50: > 100 µM (inactive)
MDA-MB-435
  GI50: > 100 µM (inactive)
NCI-H460
  GI50: 70.3 µM (inactive)
NCI/ADR-RES
  GI50: 72.4 µM (inactive)
HL-60
  GI50: 37.1 µM (inactive)
UACC-62
  GI50: > 100 µM (inactive)
PC-3
  GI50: 68.1 µM (inactive)
SNB-75
  GI50: > 100 µM (inactive)
OVCAR-5
  GI50: > 100 µM (inactive)
HOP-62
  GI50: > 100 µM (inactive)

## CCN1C(=O)CS/C1=N/NC(=O)C(O)(c1ccccc1)C1C=CC=CC1 (stereo not drawn)
MCF7
  GI50: > 10 µM (inactive)
SK-MEL-28
  GI50: > 10 µM (inactive)
SR
  GI50: > 10 µM (inactive)
SF-268
  GI50: > 10 µM (inactive)
K562
  GI50: > 10 µM (inactive)
Malme-3M
  GI50: > 10 µM (inactive)
RXF 393
  GI50: > 10 µM (inactive)
MOLT-4
  GI50: > 10 µM (inactive)
U-251
  GI50: > 10 µM (inactive)
COLO 205
  GI50: > 10 µM (inactive)
SW-620
  GI50: > 10 µM (inactive)
SK-MEL-2
  GI50: > 10 µM (inactive)
T47D
  GI50: > 10 µM (inactive)
NCI-H23
  GI50: > 10 µM (inactive)
ACHN
  GI50: > 10 µM (inactive)
RPMI-8226
  GI50: > 10 µM (inactive)
OVCAR-4
  GI50: > 10 µM (inactive)
A549
  GI50: > 10 µM (inactive)
CCRF-CEM
  GI50: > 10 µM (inactive)
SK-MEL-5
  GI50: > 10 µM (inactive)
IGROV-1
  GI50: > 10 µM (inactive)
HOP-92
  GI50: > 10 µM (inactive)
M14
  GI50: > 10 µM (inactive)
SK-OV-3
  GI50: > 10 µM (inactive)
CAKI-1
  GI50: > 10 µM (inactive)
MDA-MB-435
  GI50: > 10 µM (inactive)
NCI-H460
  GI50: > 10 µM (inactive)
NCI/ADR-RES
  GI50: > 10 µM (inactive)
HL-60
  GI50: > 10 µM (inactive)
UACC-62
  GI50: > 10 µM (inactive)
SNB-75
  GI50: > 10 µM (inactive)
OVCAR-5
  GI50: > 10 µM (inactive)
HOP-62
  GI50: > 10 µM (inactive)
